Each structure is given as a SMILES string.

As a reminder, the IC50 is the concentration at which inhibition is half-maximal. A high value points to a need for much substance.

In this assay the target is Induced myeloid leukemia cell differentiation protein Mcl-1 (Homo sapiens) (UniProt Q07820). The experiment in a line: Mcl-1 Noxa peptide disruption concentration-response – biochemical, TR-FRET, dose response (AID 1417). To be noted: Mcl-1/Noxa peptide interaction, cell-free TR-FRET (terbium/rhodamine), 2 h; measured here: absolute IC50.
Chain of Induced myeloid leukemia cell differentiation protein Mcl-1 (Homo sapiens) (Q07820 whole entry, looked up): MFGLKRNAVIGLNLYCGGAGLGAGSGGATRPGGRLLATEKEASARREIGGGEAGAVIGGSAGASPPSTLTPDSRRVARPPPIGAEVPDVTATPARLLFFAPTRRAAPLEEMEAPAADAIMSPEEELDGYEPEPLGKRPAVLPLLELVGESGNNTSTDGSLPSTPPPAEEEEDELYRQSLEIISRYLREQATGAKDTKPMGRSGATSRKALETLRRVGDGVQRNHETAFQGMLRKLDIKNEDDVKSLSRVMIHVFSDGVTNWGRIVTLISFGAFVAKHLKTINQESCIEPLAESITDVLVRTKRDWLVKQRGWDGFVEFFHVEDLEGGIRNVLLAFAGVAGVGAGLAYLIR

In the case of `COc1cc2c(cc1O)C[C@H]1NCCc3cc4c(c-2c31)OCO4`, the IC50 amounted to 5200 nM. Consider `O=C(O)c1cccc(N/N=C/C2=C(Cl)c3cc(Cl)ccc3SC2)c1`, for which the IC50 came to 4330 nM.

Consider `O=C(/C=C/c1ccc(O)c(O)c1)O[C@H](Cc1ccc(O)c(O)c1)C(=O)O`, for which the IC50 was under 400 nM.

`N=C1/C(=C\c2ccc(-c3ccc(C(=O)O)cc3)o2)C(=O)N=C2SC=C(c3ccccc3)N12`: the IC50 is under 400 nM. Then `O=C(O)CCCN1C(=O)/C(=C/C=C/c2ccco2)SC1=S`, with over 54000 nM; and `O=C1Nc2ccc(Br)cc2/C1=C/C(=O)c1ccc2c(c1)OCO2`, with 1380 nM; and `CCn1c(C)cc(/C=C2\NC(=O)N(Cc3ccc(Cl)cc3)C2=O)c1C`, with 7520 nM. Then `Nc1nc(N)c2cc(Sc3ccc4ccccc4c3)ccc2n1`, with 4060 nM; and `COc1cc(/C=C2\SC(=S)N(CC(=O)Nc3ccc(O)cc3)C2=O)cc(OC)c1OC`, with under 400 nM; and `COc1cccc(NS(=O)(=O)c2ccc3c(c2)C2C=CCC2C(c2ccc(C(=O)O)cc2)N3)c1` (stereo unspecified), with 1020 nM. Then `CC(=O)Nc1ccc(C2=NNC(=Nc3cccc(S(=O)(=O)N(C)C)c3)SC2)cc1`, with 3030 nM; and `CC(/C=C1\SC(=S)N(NS(=O)(=O)c2ccccc2)C1=O)=C\c1ccccc1`, with 17900 nM. Molecule `Cc1ccc2c(c1)C1C=CCC1C(C(=O)O)N2` (stereo unspecified) had an IC50 of under 400 nM. In turn, `N#CC1=C(N)N(c2ccc(F)cc2)C2=C(C1c1ccc(O)cc1)S(=O)(=O)CC2` (stereo unspecified) displayed an IC50 of 3400 nM. Then `CCOC(=O)CSc1nc(N)c(C(=O)Nc2ccc(N(C)C)cc2)s1`, with 523 nM. The result for `CN(C)c1ccc(/C=N/NC(=O)c2cccc(C(=O)N/N=C/c3ccc(N(C)C)cc3)n2)cc1` reads under 400 nM. The result for `CCOc1c(Cl)cc(CNc2ccc(N3CCCC3)cc2)cc1OC` reads 1580 nM. The molecule `Cc1ccc2nc(/C(C#N)=C/c3ccc(-c4cccc([N+](=O)[O-])c4)o3)[nH]c2c1` showed an IC50 of 1680 nM. The result for `CN(C)c1ccc(/C=N/N(Cc2ccccc2)c2ccccc2)cc1` reads over 54000 nM. The result for `COc1cc(NCCC(=O)c2cccs2)c(OC)cc1Cl` reads over 54000 nM. The result for `CC1CCCCC1NC(=O)c1ccc2c(c1)[nH]c(=O)n2C1CCCC1` (stereo unspecified) reads over 54000 nM; that for `COc1cc(C2C3=C(Nc4nc(N)[nH]c(=O)c42)c2ccccc2C3=O)ccc1O` (stereo unspecified), 2280 nM. On to `Cc1[nH]c2ccccc2c1/C=C/c1nc2ccccc2c(=O)[nH]1`, for which the IC50 came to 6260 nM.

Regarding `CCN(CC)S(=O)(=O)c1cc(NC(=O)Cn2ncc(Cl)c(Cl)c2=O)ccc1C`, the IC50 worked out at 3260 nM. The result for `Cc1sccc1/C=N/NC(=O)c1cccc2ccccc12` reads over 54000 nM. Take `O=C1NC(=S)N(c2ccc(F)cc2)C(=O)/C1=C\c1ccoc1`: the IC50 was under 400 nM. Then `COc1ccccc1N1C(=O)C(Cl)=C(Nc2ccccc2O)C1=O`, with over 54000 nM; and `Cc1nnc(Sc2cc(NCCCO)c([N+](=O)[O-])c3nonc23)s1`, with 1050 nM. The molecule `O=C(O)C[C@@H]1C(=O)O[C@@H]2C(COC(=O)c3cc(O)c(O)c(O)c3)O[C@@H](OC(=O)c3cc(O)c(O)c(O)c3)[C@@H](OC(=O)c3cc(O)c(O)c4c3[C@H]1[C@H](O)C(=O)O4)[C@H]2OC(=O)c1cc(O)c(O)c(O)c1` (stereo partly specified) came in with an IC50 of under 400 nM. Then `COC(=O)c1ccc(=O)c2nc3/c(=C/O)c(O)cc(=O)c3[nH]c12`, with under 400 nM; and `COc1ccc(/C=C2/C(=O)N(c3nc4ccccc4s3)N=C2CSc2ccc(Cl)cc2)cc1`, with under 400 nM. With `O=C1CSC(=S)N1/N=C/c1ccc(O)c([N+](=O)[O-])c1`, the IC50 turned out to be 1390 nM. The result for `O=c1cc2c(=O)oc3cc(O)c(O)oc3c2c(O)c1O` reads under 400 nM; that for `O=C(Nc1cccc(S(=O)(=O)NC2=NCCCCC2)c1)c1cc(-c2ccco2)nc2ccccc12`, under 400 nM; that for `Cc1cc(/C=N/n2c(COc3ccccc3)nc3ccccc3c2=O)c(O)c([N+](=O)[O-])c1`, 1560 nM. Then `NC(=S)n1[nH]c(-c2ccc([N+](=O)[O-])cc2)c(N=Nc2ccc(O)cc2)c1=O`, with 3130 nM.

The values above are taken from PubChem BioAssay AID1417 (Emory University Molecular Libraries Screening Center, 2008).
